This is an account of results in article PMC8071358, “Targeting of the Essential acpP, ftsZ, and rne Genes in Carbapenem-Resistant Acinetobacter baumannii by Antisense PNA Precision Antibacterials” (Biomedicines, 2021).

Common to all, as to format: cell-based, Acinetobacter baumannii
The test system of series [1] is CRAB strain AC1. Put plainly: BPP-PNA MIC, broth microdilution. Conditions: MHB without cation (Oxoid); 37 °C, 18 h. The protocol: (§1) MIC values were determined by broth microdilution according to standard protocols with a few modifications. An overnight bacterial cell culture was diluted to approximately 5 × 10^5 CFU/mL in non-cation-adjusted Muller Hinton Broth (MHB). Then, 180 µL bacterial solutions were dispensed into a low-bind 96-well plate (Thermo-Scientific, Roskilde, Denmark) along with 20 µL of BPP-PNA compound (BPP-PNA was serially diluted 2-fold from 16 to 0.5 µM in a 96-well plate). The plate was incubated in a Tecan Genios plate reader (GMI, Minnesota, Ramsey, USA) at 37 °C for 18 h with linear shaking, OD was measured every 20 min at 595 nm. […] The minimum bactericidal concentration (MBC) values were determined by plating 10 µL samples from the wells with no visible turbidity onto Mueller–Hinton agar plates. The MBC is determined the lowest concentration of BPP-PNA that reduces the viability of the initial bacterial inoculum by ≥99.9% (3-log reduction in CFU/mL). A minimum of two independent experiments (biological replicates) of the assay were conducted, and two technical replicates were used in each experiment for each bacterium, compound, and concentration.
For orientation: In broth dilution the organism is exposed to a series of concentrations in liquid medium.

Series [2] concerns A. baumannii ATCC 19606. As to the kind of experiment: BPP-PNA MIC, broth microdilution. Conditions: 37 °C, 18 h. The protocol: as §1
The subject of series [3] is CRAB strain AC6. As to the kind of experiment: BPP-PNA MIC, broth microdilution. Conditions: MHB without cation (Oxoid); 37 °C, 18 h. As to the method:
as §1

Series [4] has as its system CRAB strain AC44. As to the kind of experiment: BPP-PNA MIC, broth microdilution. The protocol: as §1
Series [5] relates to CRAB strain AC7. As to the kind of experiment: BPP-PNA MIC, broth microdilution. Conditions: MHB without cation (Oxoid); 37 °C, 18 h. As to the method: as §1
Series [6] has as its system CRAB strain AC4. Put plainly: BPP-PNA MIC, broth microdilution. Conditions: MHB without cation (Oxoid); 37 °C, 18 h. The protocol: as §1
Series [7] relates to CRAB strain AC9. As to the kind of experiment: BPP-PNA MIC, broth microdilution. Conditions: MHB without cation (Oxoid); 37 °C, 18 h. The protocol: as §1
Series [8] relates to CRAB strain AC2. As to the kind of experiment: BPP-PNA MIC, broth microdilution. The protocol:
as §1

Series [9] concerns CRAB strain AC3. Put plainly: BPP-PNA MIC, broth microdilution. Conditions: MHB without cation (Oxoid); 37 °C, 18 h. The protocol: as §1
Series [10] has as its system CRAB strain AC5. As to the kind of experiment: BPP-PNA MIC, broth microdilution. Conditions: MHB without cation (Oxoid); 37 °C, 18 h. As to the method:
as §1

The test system of series [11] is CRAB strain AC8. Put plainly: BPP-PNA MIC, broth microdilution. Conditions: MHB without cation (Oxoid); 37 °C, 18 h. The protocol:
as §1

Series [12] concerns CRAB strain AC46. Put plainly: BPP-PNA MIC, broth microdilution. The protocol: as §1, with “An overnight bacterial cell culture was diluted to approximately 5 × 10^5 CFU/mL in non-cation-adjusted Muller Hinton Broth (MHB).” left out
The subject of series [13] is A. baumannii SSI1104. As to the kind of experiment: BPP-PNA MIC, broth microdilution. The protocol:
as §1, with “An overnight bacterial cell culture was diluted to approximately 5 × 10^5 CFU/mL in non-cation-adjusted Muller Hinton Broth (MHB).” left out

Series [14] concerns CRAB strains. Put plainly: BPP-PNA MIC/MBC summarised over the panel of strains. As to the method: as §1
Series [15] relates to acpP mRNA in CRAB AC44 strain. Put plainly: Real-time RT-PCR of target mRNA. Conditions: AC44, 1 h treatment, normalised to 16S rRNA, against untreated control. The protocol:
Real time RT-PCR was used to determine the relative expression level of the target gene upon treatment with match BPP-PNA compared to mismatch and untreated controls. The primers for q-PCR were designed to match conserved gene sequences using the AlleleID7 software (Premier Biosoft, San Francisco, CA, USA) (Table S6). Additionally, for more accurate expression of the genes at treatment and untreated conditions, the efficacy of target gene and internal controls primers was calculated by using three consecutive dilutions of the sample cDNA and drawing a standard curve through the slope of the line. […] Statistical analysis was carried out on the gene expression levels normalized to the chosen reference gene (16S rRNA) through −∆Ct analysis. The relative expression of each gene was determined by the 2^−ΔΔCT method. We used the GenEx standard (NormFinder and GeNorm) software (bioMCC, Germany) for analyzing the data.
An overnight culture of bacteria was diluted 1:100 in MHB medium and was grown with shaking (160 rpm) at 37 °C to reach the OD595 = 0.2. Then, the bacterial culture was treated with different concentrations of BPP-PNA for 1 h and the bacterial cells were harvested by centrifugation and the cell pellet used for RNA extraction.
Total RNA was isolated using the GeneJET RNA purification kit (ThermoFisher Scientific, Roskilde, Denmark) following the manufacturer’s protocol. RNA samples were treated with DNase for 30 min at 37 °C (Turbo DNA-free kit Ambion/Applied Biosystems, Carlsbad, CA, USA) and then incubated at 72 °C for 5 min to inactivate the DNase. The genomic DNA (gDNA) contamination was checked by polymerase chain reaction (PCR). RNA concentrations were determined by Nanodrop spectrophotometry at 260 nm and purity was checked by determining the absorption ratios at 260/280 nm. Total RNA (0.5 μg) was reverse-transcribed to yield cDNA as template for real-time quantitative PCR using the Quanti Tect reverse transcription kit (Qiagen, Copenhagen, Denmark). The cDNA was diluted 1:50 and used as a template in the reaction. […]
(In qPCR the cycle at which signal appears reflects the starting amount.)

For series [16], the system named is antibiotic resistant clinical isolate AC46. As to the kind of experiment: Minimum bactericidal concentration (MBC) assay. Conditions: AC46, 24 h incubation, 1–8 μM. As to the method: as §1
[17] abbreviates: MHB without cation (Oxoid), 37 °C, 18 h.
The mark [18] stands for this setting: Oxoid MHB medium, cation adjusted, 37 °C, 18 h.
The mark [19] stands for this setting: Sigma MHB medium without cation, 37 °C, 18 h.
Where [20] appears, read: Table 4 (anti-rne), brand of medium not given, non-cation-adjusted MHB by method.

{(KFF)3K-eg1} = H-(KFF)3K peptide (K lysine, F phenylalanine) with eg1 linker (8-amino-3,6-dioxaoctanoyl), on the PNA N terminus (5' end); {NH2} = C-terminal amide

For the substance “H-(KFF)3K-eg1-GAGTCCAGGAC-NH2 (all peptide nucleic acid (PNA), 5' {(KFF)3K-eg1}, 3' {NH2}) [PNA 5615, anti-ftsZ mismatch control of 5612]”, the “MIC, AC1” value in series [1] was determined as 16 µM. The “MIC, ATCC 19606” value in series [2] (MHB without cation (Oxoid)) turned out to be 8 µM. The “MIC, AC6” value in series [3] was determined as 8 µM. In addition, in series [4] (setting [17]), the “MIC, AC44” value is given as 16 µM. In [5], the “MIC, AC7” value is 16 µM. For the same substance, the “MIC, AC4” value in [6] amounted to 16 µM. Further, the “MIC, AC9” value in series [7] is recorded as 16 µM. Moreover, in series [8] (setting [17]), the “MIC, AC2” value is recorded as 16 µM. The “MIC, AC3” value in [9] worked out at 8 µM. Besides, the “MIC, AC5” value in [10] is 16 µM. The “MIC, AC8” value in [11] stood at 16 µM. The “MIC, AC46” value in series [12] (setting [17]) is 16 µM. Further, in series [13] (setting [17]), the “MIC, SSI 1104” value was found to be 16 µM. The substance further registered an MIC50 in series [14] (over the CRAB and ATCC 19606 strains of Table 3, MHB without cation (Oxoid)) of 16 µM.
“H-(KFF)3K-eg1-TGACTTGTCAC-NH2 (all peptide nucleic acid (PNA), 5' {(KFF)3K-eg1}, 3' {NH2}) [PNA 5640, anti-acpP mismatch control of 5639]”: the “reduction in the level of the acpP mRNA” value in [15] stood at 4 fold. In addition, the “MIC, ATCC 19606” value is on record as 4 µM in series [2] (Oxoid MHB medium, cation adjusted) and 4 µM in series [2] (Sigma MHB medium without cation, ~5 × 10^5 CFU/mL, OD595 < 0.1). In addition, the “MIC, AC44” value in series [4] (setting [18]) and in series [4] (setting [19]) was 4 µM each time. Moreover, the “MIC, AC2” value in series [8] (setting [18]) and in series [8] (setting [19]) was 4 µM in each case. The “MIC, AC46” value in series [12] (setting [18]) and in series [12] (setting [19]) was 4 µM each time. Further, the “MIC, SSI 1104” value in series [13] (setting [18]) and in series [13] (setting [19]) was 4 µM throughout.
With “H-(KFF)3K-eg1-TTTCATGGGTG-NH2 (antisense; N-terminal (KFF)3K-eg1 peptide, C-terminal amide, backbone not given here, further chemistry not given here) [PNA 5656, anti-rne peptide-PNA conjugate, match, −5 to +6]”, the “MIC, ATCC 19606” value in series [2] (setting [20]) is reported as 2 µM. The “MIC, AC44” value in series [4] (setting [20]) was 2 µM. The “MIC, AC2” value in series [8] (setting [20]) was 2 µM. The “MIC, AC46” value in [12] (setting [20]) is recorded as 2 µM. Further, the “MIC, SSI 1104” value in series [13] (setting [20]) is reported as 2 µM. Further, the “concentration with bactericidal activity against carbapenem-resistant A. baumannii” value in series [14] stood at 4 µM. In addition, the “bactericidal concentration relative to MIC” value in [14] (CRAB strains) is on record as 1–2 × MIC. Besides, the “MIC (complete growth inhibition) over the CRAB strains tested” value in series [14] (several A. baumannii strains) turned out to be 2 µM. Moreover, the “MIC of match PNA lower than mismatch control (mismatch discrimination)” value in [14] (strains of Table 2 (5612 vs 5615) or Table 4 (5656 vs 5822)) is reported as “four-fold”. Besides, in series [16], the “CFU reduction in MBC assay compared to mismatch control” value is recorded as “very significant CFU reduction”.
